According to patent US5849753A, “Pyridyl imidazole derivatives and processes for the preparation thereof” (Korea Research Institute of Chemical Technology, priority 1994, dated 1998):

Legend:
angiotensin II receptor = experiment: Angiotensin II Receptor Binding Assay ([3H] angiotensin II binding inhibition); settings: [3H] angiotensin II ligand; 60 minutes, 25° C.; test concentration not given
How it was run: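 Rat membranes (SD adrenal cortex or medulla, Wistar liver) in 50 mM Tris pH 7.2, 5 mM MgCl2, 0.25% BSA were incubated with [3H]angiotensin II and test compound at graded concentrations for 60 min at 25 °C. Bound radioactivity was collected by GF/C filtration and scintillation counting, and percent binding inhibition was calculated versus untreated and blank.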

unanesthetized dogs = experiment: Blood pressure lowering effect in unanesthetized dogs (furosemide treated); format: in vivo, dog; design: Maximum blood pressure lowering effect in a dog: unit not given here; settings: oral; for Blood pressure variation with time: dogs, 1.0 mg
Procedure: A number of dogs were fed freely in a feeding room and those weighing 7 to 12 kg in good health were selected regardless of their gender.
The test dogs were anesthetized with 30 mg/kg of pentobarbital sodium by intravenous injection and the left femoral artery and femoral vein were separated carefully. Silicone catheter, specially prepared and filled with saline treated with heparin(1,000 IU/ml), was cannulated into the blood vessels. After the surgery, the dogs were constrained to measure their blood pressure continuously with Gould 2000 physiograph adapted to a Grass P23 XL pressure transducer; and their heart rates were monitored with ECG/Biotacho amplifier. The dogs were tested at least 2 days after the surgery.
10 mg/kg of furosemide was injected intramuscularly 18 hours(in case of intravenous injection, 2 hours) before the beginning of the test (administration of the test compound) to improve the activity of renin in blood plasma. After the injection of furosemide, neither food nor water was provided. The test compound was suspended in Tween 80 and administered in an amount of 20 mg/kg orally. The blood pressure and heart rate were measured up to 8 hours after the administration of each test compound.
The maximum blood pressure lowering effect of the present compounds and the control compounds were determined in different amounts of administration using the same method as […]

[1] = Metabolite analysis (enzyme digestion test); format: in vitro ADME, male rats; settings: rat liver microsome and NADPH, 1 hour, 37° C.
Procedure: Enzyme digestion test was executed in order to detect the metabolite of the test compound in vivo.
A liver microsome and NADPH system of male rats were added to each of the present compound(Example 8) and the control compound(Merck), and the mixture was incubated for 1 hour at 37° C. The resultant was extracted with methanol or dichloromethane, and, thereafter, the organic layer was evaporated to obtain a residue. The residue was analyzed using high pressure liquid chromatography.

Binding Inhibition(%) (angiotensin II receptor): 93.4%
metabolite from the enzymatic digestion ([1]; HPLC): no metabolite
stability against the enzymatic digestion ([1]; in contrast with the Merck compound): good stability
Structure (SMILES): CCCCc1nc2cc(-c3ccccn3)c(C(OC)OC)nc2n1Cc1ccc(-c2ccccc2-c2nnn[nH]2)cc1 [Example 8, 2-butyl-5-dimethoxymethyl-6-(pyridin-2-yl)-3-[2'-(1H-tetrazol-5-yl)-biphenyl-4-ylmethyl]-3H-imidazo[4,5-b]pyridine]
Maximum blood pressure lowering effect in a dog (unanesthetized dogs; 0.1 mg/kg): 17
Maximum blood pressure lowering effect in a dog (unanesthetized dogs; 0.3 mg/kg): 32
Maximum blood pressure lowering effect in a dog (unanesthetized dogs; 1 mg/kg): 34
Blood pressure variation with time (unanesthetized dogs; 0.5 hr): -32.7%
Blood pressure variation with time (unanesthetized dogs; 1 hr): -29.9%
Blood pressure variation with time (unanesthetized dogs; 2 hr): -33.0%
Blood pressure variation with time (unanesthetized dogs; 4 hr): -26.8%
Blood pressure variation with time (unanesthetized dogs; 6 hr): -25.0%
Blood pressure variation with time (unanesthetized dogs; 8 hr): -19.7%
